Source: US20060166894A1, “Ace-inhibitors having antioxidant and no-donor activity” (Yissum Research Development Company of the Hebrew …, priority 2002, published 2006)

Target: T1, recombinant human somatic ACE (Homo sapiens, UniProt P12821)
T1 construct: purchased R&D Systems
Assay: ACE activity, cleavage of fluorogenic peptide substrate
Type: biochemical
Settings: fluorogenic substrate 10 μM, 50 mM sodium borate buffer pH 8.2, 37° C.
Description: Angiotensin converting enzyme (ACE) is a dipeptidyl carboxypeptidase that releases the C-terminal dipeptide His-Leu from decapeptide angiotensin I, converting it to the vasoconstrictor angiotensin II (Ang II). The assay for ACE activity will measure the cleavage of a fluorogenic peptide substrate, (7-methoxycoumarin-4-yl)acetyl-Arg-Pro-Pro-Gly-Phe-Ser-Ala-Phe-Lys(2,4 dinitrophenyl; R&D Systems). This peptide substrate contains a fluorescent 7-methoxycoumarin group that is internally quenched by resonance energy transfer to the 2,4-dinitrophenyl group. ACE cleaves the peptide between the Ala-Phe (between the fluorescent group and the quencher group), resulting in an increase in fluorescence. The assay is carried out in a 96-well plate. […] Fluorescence changes (relative fluorescence units/min, RFU/min) are measured using a fmax fluorescence microplate reader (Molecular Devices with SoftmaxPro software) at 37° C. with excitation and emission wavelengths of 320 nm and 405 nm, respectively. A background rate determined for samples containing no ACE is subtracted from all reactions to calculate the initial rates in RFU/min. […]
The ACE activity of the compound N-{2-([1,2]dithiolan-3-yl)-propionyl}-pyrrolidine-2-carboxylic acid was measured as described above.

T1 sequence (P12821 30-1306): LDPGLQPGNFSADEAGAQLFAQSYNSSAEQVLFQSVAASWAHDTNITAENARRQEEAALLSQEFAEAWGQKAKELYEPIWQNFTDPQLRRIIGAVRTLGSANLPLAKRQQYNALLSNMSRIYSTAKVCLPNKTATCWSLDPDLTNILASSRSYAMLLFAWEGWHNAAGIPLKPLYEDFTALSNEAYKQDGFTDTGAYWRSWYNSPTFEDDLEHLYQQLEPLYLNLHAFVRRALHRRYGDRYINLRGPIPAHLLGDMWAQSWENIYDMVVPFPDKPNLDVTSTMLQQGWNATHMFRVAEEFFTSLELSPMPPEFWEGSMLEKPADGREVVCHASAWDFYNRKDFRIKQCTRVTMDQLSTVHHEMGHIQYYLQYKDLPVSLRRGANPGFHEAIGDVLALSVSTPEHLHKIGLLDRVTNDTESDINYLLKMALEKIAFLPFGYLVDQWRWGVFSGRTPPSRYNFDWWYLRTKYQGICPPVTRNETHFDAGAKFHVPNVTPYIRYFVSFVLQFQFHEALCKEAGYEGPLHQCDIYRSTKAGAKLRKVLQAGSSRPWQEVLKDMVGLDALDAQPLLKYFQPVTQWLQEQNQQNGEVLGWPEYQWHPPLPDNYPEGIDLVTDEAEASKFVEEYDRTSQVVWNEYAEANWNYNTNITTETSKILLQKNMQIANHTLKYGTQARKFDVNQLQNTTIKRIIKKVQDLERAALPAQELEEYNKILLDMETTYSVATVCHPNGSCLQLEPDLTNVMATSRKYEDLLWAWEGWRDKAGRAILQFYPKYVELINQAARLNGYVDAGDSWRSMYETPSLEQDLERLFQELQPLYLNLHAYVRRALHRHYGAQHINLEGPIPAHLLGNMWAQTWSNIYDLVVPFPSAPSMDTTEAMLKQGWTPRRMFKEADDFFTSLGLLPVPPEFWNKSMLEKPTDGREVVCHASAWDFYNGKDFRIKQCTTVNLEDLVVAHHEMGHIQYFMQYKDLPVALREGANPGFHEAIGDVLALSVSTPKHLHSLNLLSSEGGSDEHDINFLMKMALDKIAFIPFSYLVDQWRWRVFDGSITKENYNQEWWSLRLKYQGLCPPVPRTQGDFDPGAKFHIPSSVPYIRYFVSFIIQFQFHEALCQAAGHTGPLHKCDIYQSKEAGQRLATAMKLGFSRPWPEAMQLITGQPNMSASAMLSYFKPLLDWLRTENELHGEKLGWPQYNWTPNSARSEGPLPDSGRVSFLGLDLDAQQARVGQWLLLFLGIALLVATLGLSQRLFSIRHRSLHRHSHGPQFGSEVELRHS

IC50: 64 µM
SMILES: CC(C(=O)N1CCCC1C(=O)O)C1CCSS1 (stereo not shown) [N-{2-([1,2]Dithiolan-3-yl)-propionyl}-pyrrolidine-2-carboxylic acid]
